Measured values as given in ChEMBL document CHEMBL3396975, “Structural development of stapled short helical peptides as vitamin D receptor (VDR)-coactivator interaction inhibitors” (Bioorg Med Chem, 2015).
Starred links: 1 amine or outer side, 2 acyl side, 3 side chain; linkers in the order of their positions; H or OH if unused. Positions of bridges follow the written chain, without caps; N, C: chain ends. Non-standard residues stand in square brackets, D forms with d. Residues, ends and D or L forms follow the SMILES beside them. *: point of attachment. X2 = O=C(C(CO)(CO)N[*:1])[*:2]; X1 = OC(C[*:1])C(O)C[*:2]; hSer = N[C@@H](CCO)C(=O)O; X3 = C(CC[*:2])C[*:1]; Aib = CC(C)(N)C(=O)O; Allyl = C=CC*

These molecules were tested against T1, Vitamin D3 receptor (Homo sapiens, UniProt P11473) (assay: Inhibition of human VDR-cofactor interaction by EnBio receptor cofactor assay system).
T1 sequence (P11473 whole entry): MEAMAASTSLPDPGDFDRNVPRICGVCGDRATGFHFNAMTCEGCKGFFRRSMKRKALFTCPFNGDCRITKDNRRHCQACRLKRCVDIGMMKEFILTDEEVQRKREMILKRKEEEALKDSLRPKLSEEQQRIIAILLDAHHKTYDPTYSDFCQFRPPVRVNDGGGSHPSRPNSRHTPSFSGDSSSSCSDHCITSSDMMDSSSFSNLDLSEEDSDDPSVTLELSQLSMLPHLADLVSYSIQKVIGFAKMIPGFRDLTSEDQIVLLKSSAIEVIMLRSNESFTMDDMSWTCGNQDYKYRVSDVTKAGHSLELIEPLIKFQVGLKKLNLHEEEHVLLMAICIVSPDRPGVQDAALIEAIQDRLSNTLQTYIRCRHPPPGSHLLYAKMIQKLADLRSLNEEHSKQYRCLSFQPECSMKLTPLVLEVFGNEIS
With CC(=O)N[C@@H](CC(C)C)C(=O)N[C@@H](CC(C)C)C(=O)N[C@H]1CCOCC(O)C(O)COCC[C@@H](C(N)=O)NC(=O)[C@H](CC(C)C)NC(=O)[C@H](CC(C)C)NC(=O)C(C)(C)NC1=O (stereo partly drawn) (Ac-LL[hSer][Aib]LL[hSer]-NH2; linker 3-7 via X1) the IC50 was 67 µM.
For CC(=O)N[C@@H](CC(C)C)C(=O)N[C@@H](CC(C)C)C(=O)N[C@H]1CCOCCCCOCC[C@@H](C(N)=O)NC(=O)[C@H](CC(C)C)NC(=O)[C@H](CC(C)C)NC(=O)C(CO)(CO)NC1=O (Ac-LL[hSer][X2]LL[hSer]-NH2; linker 3-7 via X3), the IC50 was 20 µM.
C=CCOCC[C@H](NC(=O)[C@H](CC(C)C)NC(=O)[C@H](CC(C)C)NC(=O)C(C)(C)NC(=O)[C@H](CCOCC=C)NC(=O)[C@H](CC(C)C)NC(=O)[C@@H](N)CC(C)C)C(=O)O (H-LL[hSer](Allyl)[Aib]LL[hSer](Allyl)-OH) showed an IC50 of 500 µM.
